In general, inhibition refers to the percentage by which the read-out fell short of the control.

The record followed here is ChEMBL document CHEMBL1212695, “An allosteric potentiator of M4 mAChR modulates hippocampal synaptic transmission” (Nat Chem Biol, 2008).

Calls of active or inactive are those of the source. The rule behind the calls is not given here.

In assay [1] the target is T1, Muscarinic acetylcholine receptor M4 (Rattus norvegicus) (UniProt P08485).
T1 sequence (whole entry): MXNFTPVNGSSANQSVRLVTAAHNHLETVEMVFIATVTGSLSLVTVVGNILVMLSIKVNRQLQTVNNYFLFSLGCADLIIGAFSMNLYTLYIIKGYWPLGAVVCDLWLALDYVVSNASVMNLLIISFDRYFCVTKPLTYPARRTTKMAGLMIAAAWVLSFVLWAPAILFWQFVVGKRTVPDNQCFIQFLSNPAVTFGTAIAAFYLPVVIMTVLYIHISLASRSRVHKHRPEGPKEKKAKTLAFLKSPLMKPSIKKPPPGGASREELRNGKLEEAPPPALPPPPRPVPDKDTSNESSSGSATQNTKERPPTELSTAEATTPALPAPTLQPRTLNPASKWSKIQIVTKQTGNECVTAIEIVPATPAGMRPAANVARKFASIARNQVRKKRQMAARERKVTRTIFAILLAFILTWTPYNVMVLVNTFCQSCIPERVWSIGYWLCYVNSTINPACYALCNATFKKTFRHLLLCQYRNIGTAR
Nature of the assay: Allosteric activation of rat recombinant muscarinic M4 receptor expressed in CHO cells assessed as fold decrease in acetylcholine Ki for displacement of [3H]NMS from active binding site after 2 hrs by microplate scintillation counting. It counts as cell-based. A general note: Displacement assays read how much labelled ligand stays bound in the presence of the test substance.

Assay [2] has as its target T1, Muscarinic acetylcholine receptor M4 (Rattus norvegicus). Kind of assay: Allosteric activation of rat recombinant muscarinic M4 receptor expressed in CHO cells assessed as potentiation of acetylcholine-induced increase in [35S]GTPgammaS binding at 10 um after 1 hr by equilibrium binding assay. It counts as functional, cell-based.
Assay [3] deals with T2, Muscarinic acetylcholine receptor M5 (Rattus norvegicus) (UniProt P08911).
T2 sequence (whole entry): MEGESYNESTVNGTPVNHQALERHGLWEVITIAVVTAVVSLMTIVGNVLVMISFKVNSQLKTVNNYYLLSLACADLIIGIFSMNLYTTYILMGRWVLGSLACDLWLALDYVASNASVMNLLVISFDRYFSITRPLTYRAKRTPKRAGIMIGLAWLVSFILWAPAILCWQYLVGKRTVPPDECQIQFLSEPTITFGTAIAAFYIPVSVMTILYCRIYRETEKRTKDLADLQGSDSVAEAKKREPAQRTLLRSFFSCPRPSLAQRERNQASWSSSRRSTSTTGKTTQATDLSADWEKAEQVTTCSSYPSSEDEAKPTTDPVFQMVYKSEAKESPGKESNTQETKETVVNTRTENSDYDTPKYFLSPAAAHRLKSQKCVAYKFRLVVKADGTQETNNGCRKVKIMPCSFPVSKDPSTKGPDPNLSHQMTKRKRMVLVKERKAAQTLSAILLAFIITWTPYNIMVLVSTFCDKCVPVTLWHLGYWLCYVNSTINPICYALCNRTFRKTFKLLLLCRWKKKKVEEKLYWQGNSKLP
Kind of assay: Displacement of [3H]NMS from rat recombinant muscarinic M5 receptor expressed in CHO cells after 2 hrs by microplate scintillation counting. The assay is classed as cell-based.

Assay [4] addresses T1, Muscarinic acetylcholine receptor M4 (Rattus norvegicus). Nature of the assay: Agonist activity at muscarinic M4 receptor in Sprague-Dawley rat hippocampal CA1 pyramidal neuron assessed as increase in carbachol-induced reduction in excitatory postsynaptic current at 10 uM by whole-cell electrophysiology relative to control. It counts as functional, tissue-based. More on the design: scale not given: the % may be the effect or the level left. Conditions: Hippocampus.

The nature of assay [5]: Agonist activity at muscarinic receptor in M4 receptor knock out mouse hippocampal CA1 pyramidal neuron assessed as reduction of excitatory postsynaptic current amplitude at 2 uM by whole-cell electrophysiology relative to control. It counts as functional. The conditions noted are these: Hippocampus.
For assay [6], the target named is T1, Muscarinic acetylcholine receptor M4 (Rattus norvegicus). Nature of the assay: Agonist activity at muscarinic M4 receptor in Sprague-Dawley rat hippocampal CA1 pyramidal neuron assessed as inhibitory postsynaptic current amplitude at 5 uM by whole-cell electrophysiology relative to control. The assay is classed as functional, tissue-based. Conditions: Hippocampus. Also noted: scale not given: the % may be the effect or the level left.

The nature of assay [7]: Agonist activity at muscarinic receptor in M4 receptor knock out mouse hippocampal CA1 pyramidal neuron assessed as reduction of inhibitory postsynaptic current amplitude at 2 uM by whole-cell electrophysiology in presence of carbachol relative to control. It counts as functional. Conditions: Hippocampus.

With `Cc1cc(C)c2c(N)c(C(=O)NCc3ccc(Cl)cc3)sc2n1`, the Activity entry in assay [1] is “Dose-dependent effect”; in assay [2], 43%; in assay [4] it was 42.7%; in assay [6], 98.5%. The result in assay [3] was inactive. Also, the inhibition at 2 µM is 70.8% in assay [5] and 60.2% in assay [7].
